Measured values taken from publication PMC6553640 (Science signaling, 2018).

Target: T1, TRIB1 (Homo sapiens, UniProt Q96RU8)
T1 sequence (Q96RU8 84-372): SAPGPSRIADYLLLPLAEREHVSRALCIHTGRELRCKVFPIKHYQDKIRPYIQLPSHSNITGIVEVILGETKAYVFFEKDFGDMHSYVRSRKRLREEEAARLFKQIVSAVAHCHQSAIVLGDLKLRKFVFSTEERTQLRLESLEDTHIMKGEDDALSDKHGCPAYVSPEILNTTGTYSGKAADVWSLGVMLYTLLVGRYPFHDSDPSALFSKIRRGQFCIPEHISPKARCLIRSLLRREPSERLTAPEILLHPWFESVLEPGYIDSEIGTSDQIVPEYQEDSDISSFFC
Assay: DSF destabilization
Type: binding

Which DSF destabilization does the source give for `COc1cccc(COc2cc(-n3cnc4ccccc43)sc2C(N)=O)c1` [GW804482X] here?
Its DSF destabilization is “although like TRIB2, destabilization was evident in the presence of GW804482X (fig. S3C)”.
